Source: patent publication US20220241416A1, “METHODS FOR THE IDENTIFICATION OF SARM1 NADASE ACTIVITY INHIBITORS AND USES THEREOF” (Bar Ilan University, priority 2021, published 2022)
Several values for one entry are separate records, joined by “and”; a condition that tells them apart may be missing. Equal entries are not always repeated.

Target: T1, hSARM1 (Homo sapiens, UniProt Q6SZW1, E642Q)
T1 construct: short of the N′ terminal mitochondria) localization signal (26ERL . .; 6xHis (N); TEV cleavage site (N); made in house; host or cells: HEK293F suspension cells
T1 sequence (Q6SZW1 with tags, fused parts or gaps E642Q): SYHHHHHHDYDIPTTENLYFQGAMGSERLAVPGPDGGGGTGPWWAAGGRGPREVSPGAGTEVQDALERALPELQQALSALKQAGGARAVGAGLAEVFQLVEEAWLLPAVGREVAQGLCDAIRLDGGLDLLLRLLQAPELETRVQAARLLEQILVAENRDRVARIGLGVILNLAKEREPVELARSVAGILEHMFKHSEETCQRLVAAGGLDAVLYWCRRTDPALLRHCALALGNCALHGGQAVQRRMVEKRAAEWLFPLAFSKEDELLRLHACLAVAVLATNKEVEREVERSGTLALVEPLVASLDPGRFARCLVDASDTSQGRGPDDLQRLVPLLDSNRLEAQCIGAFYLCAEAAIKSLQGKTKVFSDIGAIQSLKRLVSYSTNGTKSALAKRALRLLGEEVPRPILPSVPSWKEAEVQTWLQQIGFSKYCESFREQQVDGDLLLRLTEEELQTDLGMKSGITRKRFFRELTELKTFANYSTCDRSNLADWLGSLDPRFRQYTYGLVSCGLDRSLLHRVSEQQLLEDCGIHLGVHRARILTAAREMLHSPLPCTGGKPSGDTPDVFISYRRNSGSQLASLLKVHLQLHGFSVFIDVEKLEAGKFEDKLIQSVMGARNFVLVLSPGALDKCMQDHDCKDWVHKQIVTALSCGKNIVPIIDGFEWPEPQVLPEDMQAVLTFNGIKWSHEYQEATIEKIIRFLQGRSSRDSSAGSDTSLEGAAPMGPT
Assay: Cryo-EM 2D classification of hSARM1 conformation
Details: for effect on hSARM1 conformation: 2D classification / GraFix
Experimental: FIG. 7B: The structural effects of NAD+ and ATP were observed by cryo-EM based on appearance in 2D classification. Presented are the 10 most populated classes (those with the largest number of particles—numbers in green, 1st class is on the left) out of 50-100 from each data collection after the first round of particle picking and classification. By this analysis, the percentage of particles that present full, two-ring structure is 13% (no NAD+); 74% (5 mM NAD+); and 4% (10 mM ATP).
Cryo-EM grids were prepared by applying 3 μl protein samples to glow-discharged (PELCO easiGlow™ Ted Pella Inc., at 15 mA for 1 minute) holey carbon grids (Quantifoil R 1.2/1.3, Micro Tools GmbH, Germany). The grids were blotted for 4 seconds and vitrified by rapidly plunging into liquid ethane at −182° C. using Leica EM GP plunger (Leica Microsystems, Vienna, Austria). The frozen grids were stored in liquid nitrogen until the day of cryo-EM data collection.
The data presented herein was collected with three separate cryo-electron microscopes: 1) F30 Polara in Ben-Gurion University, Israel was used for all sample preparation optimization. It was also used to collect data sets without and with potential inhibitors (shown in FIG. 1C and the ATP and NMN supplemented classes in FIG. 7B). Samples were imaged under low-dose conditions on a FEI Tecnai F30 Polara microscope (FEI, Eindhoven) operating at 300 kV. Datasets were collected using SerialEM (D. N. Mastronarde, et al. Journal of structural biology 152, 36-51 (2005)) on a K2 Summit direct electron detector fitted behind an energy filter (Gatan Quantum GIF) with a calibrated pixel size of 1.1 Å. The energy filter was set to remove electrons >±10 eV from the zero-loss peak energy. The defocus range was set from −1.0 μm to −2.5 μm. The K2 summit camera was operated in counting mode at a dose rate of 8 electrons/pixel/second on the camera. Each movie was dose fractionated into 50 image frames, with total electron dose of 80ē/Å2. Dose-fractionated image stacks were aligned using MotionCorr2 (X. Li et al., Nature methods 10, 584-590 (2013)), and their defocus values estimated by Gctf (K. Zhang, et al. J Struct Biol 193, 1-12 (2016)). The sum of the aligned frames was used for further processing and the rest of the processing was done in Cryosparc V2 (A. Punjani, J. et al. Nature Methods 14, 290-+(2017)). Particles were auto-picked and subjected to local motion correction to correct for beam-induced drift and then 2D classification with 50 classes. The best (based on shape, number of particles and resolution) classes were manually selected containing 5459 (for hSARM1E642Q) and 43868 (for SAM1-2) particles. 1 initial 3D reference was prepared from all particles and 3D refinement imposing C8 symmetry resulted the final map. […]

SMILES	percentage of particles that present full, two-ring structure (10 mM ATP, 13% without supplement)	effect on hSARM1 conformation	percentage of particles that present full, two-ring structure (5 mM NAD+, 13% or <20% without NAD+)
Nc1ncnc2c1ncn2[C@@H]1O[C@H](COP(=O)(O)OP(=O)(O)OP(=O)(O)O)[C@@H](O)[C@H]1O [ATP]	4%	did not affect hSARM1 conformation	–
NC(=O)c1ccc[n+]([C@@H]2O[C@H](COP(=O)([O-])OP(=O)(O)OC[C@H]3O[C@@H](n4cnc5c(N)ncnc54)[C@H](O)[C@@H]3O)[C@@H](O)[C@H]2O)c1 [NAD+, Nicotinamide adenine dinucleotide]	–	–	> 80% and 74%
OCC(O)CO [glycerol]	–	imposes hSARM1 compact conformation	–
